# Literature values, collected in patent publication US20240252431A1, “PULMONARY BIGUANIDE FORMULATIONS AND DELIVERY DEVICES” (Onconox Inc., priority 2021, published 2024).
# Assays:
# [1] = test system: radiation induced pneumonitis; settings: in vivo
# [2] = test system: lung fibrosis elicited by bleomycin; settings: mouse bleomycin model; treatment starting three weeks after lung injury, continuing five weeks
compound,measurement,setting,value
"CN(C)C(=N)N=C(N)N [Metformin, metformin]",effect on radiation induced pneumonitis,[1],protect against radiation induced pneumonitis
same,effect on established lung fibrosis,[2],reverse established lung fibrosis
